# Columns and labels:
# Type in all cases: cell-based
# [1] = target: T1, human TLR9 (Homo sapiens, UniProt Q9NR96); assay: TLR9 inhibition reporter assay (HEK-Blue, SEAP); conditions: HEK-Blue cells overexpressing human TLR9, ODN2006 5 nM, 22 hour incubation
# T1 construct: host or cells: HEK-Blue cells
# T1 sequence (Q9NR96 26-1032): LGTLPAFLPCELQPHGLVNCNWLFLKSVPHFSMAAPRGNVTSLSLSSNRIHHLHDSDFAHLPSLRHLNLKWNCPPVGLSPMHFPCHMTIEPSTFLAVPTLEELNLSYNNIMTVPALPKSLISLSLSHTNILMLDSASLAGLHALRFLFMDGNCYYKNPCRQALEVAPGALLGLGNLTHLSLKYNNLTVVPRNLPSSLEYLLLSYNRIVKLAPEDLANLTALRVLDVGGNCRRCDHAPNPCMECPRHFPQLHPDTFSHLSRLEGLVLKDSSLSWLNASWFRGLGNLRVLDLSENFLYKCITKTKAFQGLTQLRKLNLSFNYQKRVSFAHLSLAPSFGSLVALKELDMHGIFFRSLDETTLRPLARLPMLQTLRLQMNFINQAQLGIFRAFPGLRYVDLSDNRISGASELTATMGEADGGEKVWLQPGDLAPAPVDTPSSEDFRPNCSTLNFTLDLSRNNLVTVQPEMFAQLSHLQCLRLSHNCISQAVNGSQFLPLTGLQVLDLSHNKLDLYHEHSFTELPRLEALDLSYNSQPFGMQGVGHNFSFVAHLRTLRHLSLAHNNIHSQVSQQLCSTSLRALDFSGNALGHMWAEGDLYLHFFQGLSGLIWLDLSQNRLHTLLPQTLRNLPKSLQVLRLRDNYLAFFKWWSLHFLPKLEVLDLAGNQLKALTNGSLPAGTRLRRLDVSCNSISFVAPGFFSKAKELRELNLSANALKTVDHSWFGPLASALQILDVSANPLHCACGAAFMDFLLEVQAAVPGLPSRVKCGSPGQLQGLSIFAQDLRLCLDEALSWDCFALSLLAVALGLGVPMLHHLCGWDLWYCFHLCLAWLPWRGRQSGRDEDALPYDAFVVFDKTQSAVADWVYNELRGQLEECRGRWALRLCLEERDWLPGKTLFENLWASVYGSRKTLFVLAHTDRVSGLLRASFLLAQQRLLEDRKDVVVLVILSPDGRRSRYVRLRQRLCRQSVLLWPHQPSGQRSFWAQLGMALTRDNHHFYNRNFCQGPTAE
# In short: (§1)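 Screening used HEK-Blue cells overexpressing one human TLR (7, 8 or 9) and an IFN-β minimal promoter–NF-κB/AP-1 SEAP construct. Stimulation lasted 22 h at 37 °C with receptor-specific agonist: gardiquimod, R848 or ODN2006 at 7.5 μM, 15.9 μM and 5 nM.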
# [2] = target: T2, human TLR7 (Homo sapiens, UniProt Q9NYK1); assay: TLR7 inhibition reporter assay (HEK-Blue, SEAP); conditions: HEK-Blue cells overexpressing human TLR7, gardiquimod 7.5 μM, 22 hour incubation
# T2 construct: host or cells: HEK-Blue cells
# T2 sequence (Q9NYK1 27-1049): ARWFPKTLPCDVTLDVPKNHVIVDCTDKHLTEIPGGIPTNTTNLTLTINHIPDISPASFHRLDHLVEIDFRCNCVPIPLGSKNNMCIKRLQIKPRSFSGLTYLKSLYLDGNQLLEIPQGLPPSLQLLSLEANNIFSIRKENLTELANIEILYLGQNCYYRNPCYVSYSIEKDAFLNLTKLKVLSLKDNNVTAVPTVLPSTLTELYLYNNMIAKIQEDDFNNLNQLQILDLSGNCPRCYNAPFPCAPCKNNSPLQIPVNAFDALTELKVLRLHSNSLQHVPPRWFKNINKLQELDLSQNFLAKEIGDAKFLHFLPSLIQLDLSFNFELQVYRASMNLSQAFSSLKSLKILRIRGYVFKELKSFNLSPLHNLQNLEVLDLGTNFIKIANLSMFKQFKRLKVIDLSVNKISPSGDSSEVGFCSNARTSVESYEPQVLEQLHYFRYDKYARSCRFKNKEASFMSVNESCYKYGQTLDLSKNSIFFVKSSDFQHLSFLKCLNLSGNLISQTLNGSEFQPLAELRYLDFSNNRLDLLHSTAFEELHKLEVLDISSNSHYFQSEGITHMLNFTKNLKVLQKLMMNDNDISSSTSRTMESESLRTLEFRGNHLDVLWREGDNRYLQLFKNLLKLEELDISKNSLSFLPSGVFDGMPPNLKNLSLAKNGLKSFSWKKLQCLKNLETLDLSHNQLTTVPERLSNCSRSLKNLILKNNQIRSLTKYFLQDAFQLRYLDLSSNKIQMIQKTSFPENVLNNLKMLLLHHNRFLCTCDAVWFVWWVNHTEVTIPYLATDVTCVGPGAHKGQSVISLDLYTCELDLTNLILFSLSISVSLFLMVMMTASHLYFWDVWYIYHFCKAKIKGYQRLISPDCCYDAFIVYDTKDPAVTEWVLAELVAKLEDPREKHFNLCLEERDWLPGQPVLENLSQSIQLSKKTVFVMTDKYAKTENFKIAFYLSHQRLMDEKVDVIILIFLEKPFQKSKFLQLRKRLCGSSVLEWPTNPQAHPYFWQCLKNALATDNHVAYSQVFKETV
# In short: as §1
# [3] = target: T3, human TLR8 (Homo sapiens, UniProt Q9NR97); assay: TLR8 inhibition reporter assay (HEK-Blue, SEAP); conditions: HEK-Blue cells overexpressing human TLR8, R848 15.9 μM, 22 hour incubation
# T3 construct: host or cells: HEK-Blue cells
# T3 sequence (Q9NR97 27-1041): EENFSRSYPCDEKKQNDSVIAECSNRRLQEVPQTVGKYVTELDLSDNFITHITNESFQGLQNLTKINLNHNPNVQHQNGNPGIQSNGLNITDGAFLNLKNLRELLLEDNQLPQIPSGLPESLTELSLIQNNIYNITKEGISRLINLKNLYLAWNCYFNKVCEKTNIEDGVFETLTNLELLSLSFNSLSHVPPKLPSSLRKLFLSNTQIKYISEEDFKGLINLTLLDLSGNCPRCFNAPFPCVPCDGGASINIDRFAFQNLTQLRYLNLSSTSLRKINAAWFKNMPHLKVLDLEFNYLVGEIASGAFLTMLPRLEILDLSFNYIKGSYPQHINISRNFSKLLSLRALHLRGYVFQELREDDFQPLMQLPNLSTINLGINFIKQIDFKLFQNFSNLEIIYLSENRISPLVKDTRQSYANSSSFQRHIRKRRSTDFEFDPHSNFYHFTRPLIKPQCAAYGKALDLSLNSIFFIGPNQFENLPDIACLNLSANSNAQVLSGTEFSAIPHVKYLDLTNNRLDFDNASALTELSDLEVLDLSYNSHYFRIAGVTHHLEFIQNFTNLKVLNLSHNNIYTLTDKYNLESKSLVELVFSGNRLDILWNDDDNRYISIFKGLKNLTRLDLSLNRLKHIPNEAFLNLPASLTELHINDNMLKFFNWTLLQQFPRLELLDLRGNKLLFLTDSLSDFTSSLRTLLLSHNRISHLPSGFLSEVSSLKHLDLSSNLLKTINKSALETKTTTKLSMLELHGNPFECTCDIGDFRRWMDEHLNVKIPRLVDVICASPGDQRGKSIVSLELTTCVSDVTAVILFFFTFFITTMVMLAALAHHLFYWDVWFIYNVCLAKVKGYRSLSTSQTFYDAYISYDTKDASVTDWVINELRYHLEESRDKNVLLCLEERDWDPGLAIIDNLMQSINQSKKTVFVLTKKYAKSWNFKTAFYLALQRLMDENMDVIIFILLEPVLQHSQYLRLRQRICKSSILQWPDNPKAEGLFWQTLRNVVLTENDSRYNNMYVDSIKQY
# In short: as §1
SMILES,IC50 [1] [nM],IC50 [2] [nM],IC50 [3] [nM]
"Cc1c(-c2[nH]c3ccc(C4CCN(CC(=O)N(C)C)CC4)cc3c2C(C)C)ccc2nncn12 [Example 25, 2-(4-(3-isopropyl-2-(5-methyl-[1,2,4]triazolo[4,3-a]pyridin-6-yl)-1H-indol-5-yl)piperidin-1-yl)-N,N-dimethylacetamide]",3320,49.5,28.5
"Cc1cc(-c2[nH]c3ccc(C4CCN(CCO)CC4)cc3c2C(C)C)cn2cnnc12 [Example 28, 2-(4-(3-isopropyl-2-(8-methyl-[1,2,4]triazolo[4,3-a]pyridin-6-yl)-1H-indol-5-yl)piperidin-1-yl) ethan-1-ol]",454,0.4,3.4
"Cc1cc(-c2[nH]c3ccc(C4CCN(CC5(C)COC5)CC4)cc3c2C(C)C)cn2cnnc12 [Example 29, 6-(3-isopropyl-5-(1-((3-methyloxetan-3-yl)methyl)piperidin-4-yl)-1H-indol-2-yl)-8-methyl-[1,2,4]triazolo[4,3-a]pyridine]",4330,0.7,1.1
"Cc1cc(-c2[nH]c3ccc(C4CCN(CCS(C)(=O)=O)CC4)cc3c2C(C)C)cn2c(C)nnc12 [Example 32, 6-(3-isopropyl-5-(1-(2-(methylsulfonyl)ethyl)piperidin-4-yl)-1H-indol-2-yl)-3,8-dimethyl-[1,2,4]triazolo[4,3-a]pyridine]",3670,11.1,2.1
"Cc1cc(-c2[nH]c3ccc(C4CCN(CC(=O)N(C)C)CC4)cc3c2C(C)C)cn2c(C)nnc12 [Example 34, 2-(4-(2-(3,8-dimethyl-[1,2,4]triazolo[4,3-a]pyridin-6-yl)-3-isopropyl-1H-indol-5-yl)piperidin-1-yl)-N,N-dimethylacetamide]",1430,9.1,4.6
"Cc1cc(-c2[nH]c3ccc(C4CCN(CCCC(F)(F)F)CC4)cc3c2C(C)C)cn2cnnc12 [Example 36, 6-(3-isopropyl-5-(1-(4,4,4-trifluorobutyl)piperidin-4-yl)-1H-indol-2-yl)-8-methyl-[1,2,4]triazolo[4,3-a]pyridine]",919,1.2,4.5
"COCc1nnc2ccc(-c3[nH]c4ccc(C5CCN(CC(=O)N(C)C)CC5)cc4c3C(C)C)cn12 [Example 38, 2-(4-(3-isopropyl-2-(3-(methoxymethyl)-[1,2,4]triazolo[4,3-a]pyridin-6-yl)-1H-indol-5-yl)piperidin-1-yl)-N,N-dimethylacetamide]",3120,281,402

# Continued by falling IC50 [1], values first:
IC50 [1] [nM],IC50 [2] [nM],IC50 [3] [nM],SMILES
12400,117,27.9,"Cc1c(-c2[nH]c3ccc(C4CCN(Cc5ncn(C)n5)CC4)cc3c2C(C)C)ccc2nncn12 [Example 26, 6-(3-isopropyl-5-(1-((1-methyl-1H-1,2,4-triazol-3-yl)methyl)piperidin-4-yl)-1H-indol-2-yl)-5-methyl-[1,2,4]triazolo[4,3-a]pyridine]"
5840,0.7,3,"Cc1cc(-c2[nH]c3ccc(C4CCN(CCS(C)(=O)=O)CC4)cc3c2C(C)C)cn2cnnc12 [Example 35, 6-(3-isopropyl-5-(1-(2-(methylsulfonyl)ethyl)piperidin-4-yl)-1H-indol-2-yl)-8-methyl-[1,2,4] triazolo[4,3-a]pyridine]"
5160,29.6,7.9,"Cc1cc(-c2[nH]c3ccc(C4CCN(Cc5ncn(C)n5)CC4)cc3c2C(C)C)cn2c(C)nnc12 [Example 33, 6-(3-isopropyl-5-(1-((1-methyl-1H-1,2,4-triazol-3-yl)methyl)piperidin-4-yl)-1H-indol-2-yl)-3,8-dimethyl-[1,2,4]triazolo[4,3-a]pyridine]"
3500,0.9,3.4,"COCCN1CCC(c2ccc3[nH]c(-c4cc(C)c5nncn5c4)c(C(C)C)c3c2)CC1 [Example 27, 6-(3-isopropyl-5-(1-(2-methoxyethyl)piperidin-4-yl)-1H-indol-2-yl)-8-methyl-[1,2,4]triazolo[4,3-a]pyridine]"
3110,0.3,1.3,"Cc1cc(-c2[nH]c3ccc(C4CCN(CC5COC5)CC4)cc3c2C(C)C)cn2cnnc12 [Example 30, 6-(3-isopropyl-5-(1-(oxetan-3-ylmethyl)piperidin-4-yl)-1H-indol-2-yl)-8-methyl-[1,2,4]triazolo[4,3-a]pyridine]"
1520,0.3,6.5,"Cc1cc(-c2[nH]c3ccc(C4CCN(CC#N)CC4)cc3c2C(C)C)cn2cnnc12 [Example 37, 2-(4-(3-isopropyl-2-(8-methyl-[1,2,4]triazolo[4,3-a]pyridin-6-yl)-1H-indol-5-yl)piperidin-1-yl)acetonitrile]"
727,3.8,12.8,"Cc1cc(-c2[nH]c3ccc(C4CCN(CC#N)CC4)cc3c2C(C)C)cn2c(C)nnc12 [Example 31, 2-(4-(2-(3,8-dimethyl-[1,2,4]triazolo[4,3-a]pyridin-6-yl)-3-isopropyl-1H-indol-5-yl)piperidin-1-yl)acetonitrile]"

# — patent publication US11130756B2, “[1,2,4]Triazolo[4,3-A]pyridinyl substituted indole compounds” (BRISTOL-MYERS SQUIBB COMPANY, priority 2017, dated 2021)
